According to patent US12122761B2, “2-azaspiro[3.4]octane derivatives as M4 agonists” (NOVARTIS AG, priority 2019, dated 2024):

Tests used:
Assay type in all cases: cell-based
[1] = target: T1, human cloned CHRM2 receptor (M2_CHO cells) (Homo sapiens, UniProt P08172); experiment: CHRM2 Ca++ Flux Assay (agonist mode, FDSS 7000EX); conditions: for M2 FDSS PA: Percent Activity measured to EC100 of Carbachol; for EC50: agonist mode, geometric mean if tested more than once, read-out: M2 FDSS EC50
T1 construct: expressed in transfected cells; host or cells: CHO-K1
T1 sequence (P08172 1-466): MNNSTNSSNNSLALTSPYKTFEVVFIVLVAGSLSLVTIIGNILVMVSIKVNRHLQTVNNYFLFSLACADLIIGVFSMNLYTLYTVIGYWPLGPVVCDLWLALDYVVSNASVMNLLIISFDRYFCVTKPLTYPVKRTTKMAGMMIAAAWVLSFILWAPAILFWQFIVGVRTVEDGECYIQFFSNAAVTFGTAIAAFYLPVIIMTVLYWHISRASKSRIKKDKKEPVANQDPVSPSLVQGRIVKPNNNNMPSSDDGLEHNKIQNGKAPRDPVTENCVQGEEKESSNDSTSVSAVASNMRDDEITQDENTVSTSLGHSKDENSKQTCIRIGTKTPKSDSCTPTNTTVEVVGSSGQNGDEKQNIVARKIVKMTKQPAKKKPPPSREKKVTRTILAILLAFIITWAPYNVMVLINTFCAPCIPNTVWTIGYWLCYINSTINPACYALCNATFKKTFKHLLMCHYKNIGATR
Summary of the method: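 Response expressed as percent activity versus the Carbachol EC100, with curves fitted by four-parameter non-linear regression of triplicates. Stable M2_CHO cells were Ca++ dye-loaded and preincubated 60 min at room temperature in assay buffer containing 20 μM ATP; signal imaged for 3 minutes after compound.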

[2] = target: T2, human cloned CHRM3 receptor (M3_CHO cells) (Homo sapiens, UniProt P20309); experiment: CHRM3 Ca++ Flux Assay (agonist mode, FDSS 7000EX); conditions: for M3 FDSS PA: Percent Activity measured to EC100 of Carbachol; for EC50: agonist mode, geometric mean if tested more than once, read-out: M3 FDSS EC50
T2 construct: expressed in transfected cells; host or cells: CHO-K1
T2 sequence (P20309 whole entry): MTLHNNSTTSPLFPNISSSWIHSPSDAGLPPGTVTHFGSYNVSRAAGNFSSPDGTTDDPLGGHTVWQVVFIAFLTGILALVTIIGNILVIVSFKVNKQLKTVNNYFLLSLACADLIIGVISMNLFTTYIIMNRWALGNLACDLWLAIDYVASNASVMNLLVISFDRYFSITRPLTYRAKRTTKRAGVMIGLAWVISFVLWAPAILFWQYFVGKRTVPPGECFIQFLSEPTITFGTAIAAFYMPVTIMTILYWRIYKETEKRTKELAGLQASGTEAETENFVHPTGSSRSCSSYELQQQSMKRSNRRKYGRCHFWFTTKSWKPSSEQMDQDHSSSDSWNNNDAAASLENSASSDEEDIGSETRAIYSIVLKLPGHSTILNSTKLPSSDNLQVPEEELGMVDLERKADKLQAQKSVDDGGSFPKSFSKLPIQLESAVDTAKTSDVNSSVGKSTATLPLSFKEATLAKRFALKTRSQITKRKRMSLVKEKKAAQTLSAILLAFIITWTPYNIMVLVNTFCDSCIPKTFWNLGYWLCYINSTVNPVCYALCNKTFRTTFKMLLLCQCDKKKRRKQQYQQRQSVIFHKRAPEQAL
Summary of the method: (§1)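 CHO-K1 cells stably expressing human M3 or M5 receptor were dye-loaded for at least 1 h in HBSS with 20 mM HEPES and 2.5 mM probenecid, then given 11-point compound doses in triplicate.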

[3] = target: T3, human cloned CHRM5 receptor (M5_CHO) (Homo sapiens, UniProt P08912); experiment: CHRM5 Ca++ Flux Assay (agonist mode, FDSS 7000EX); conditions: for M5 FDSS PA: Percent Activity measured to EC100 of Carbachol; for EC50: agonist mode, geometric mean if tested more than once, read-out: M5 FDSS EC50
T3 construct: expressed in transfected cells; host or cells: CHO (M5_CHO)
T3 sequence (P08912 1-532): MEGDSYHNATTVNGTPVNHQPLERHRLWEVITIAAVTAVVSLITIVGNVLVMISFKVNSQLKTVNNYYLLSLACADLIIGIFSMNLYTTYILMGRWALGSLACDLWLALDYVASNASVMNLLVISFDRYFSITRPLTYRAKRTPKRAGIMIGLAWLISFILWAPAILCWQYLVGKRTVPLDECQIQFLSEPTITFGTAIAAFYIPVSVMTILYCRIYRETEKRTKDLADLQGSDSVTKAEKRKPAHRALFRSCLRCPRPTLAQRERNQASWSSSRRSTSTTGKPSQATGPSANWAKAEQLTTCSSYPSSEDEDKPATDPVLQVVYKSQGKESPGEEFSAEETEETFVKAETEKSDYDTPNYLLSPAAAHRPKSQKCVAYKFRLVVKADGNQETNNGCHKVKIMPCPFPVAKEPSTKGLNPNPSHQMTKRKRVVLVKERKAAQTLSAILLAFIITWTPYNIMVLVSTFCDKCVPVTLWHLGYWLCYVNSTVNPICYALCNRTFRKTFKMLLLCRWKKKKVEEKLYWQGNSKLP
Summary of the method: as §1

Row | SMILES | M2 FDSS PA [1] [%] | EC50 [1] [µM] | M3 FDSS PA [2] [%] | EC50 [2] [µM] | M5 FDSS PA [3] [%] | EC50 [3] [µM]
1 | Fc1cncc(N2CC3(CC[C@@H](N4CCC(c5cc(F)ccc5OC5CCOCC5)CC4)C3)C2)c1 (single isomer, unassigned) [Example 10B, (R)-6-(4-(5-fluoro-2-((tetrahydro-2H-pyran-4-yl)oxy)phenyl)piperidin-1-yl)-2-(5-fluoropyridin-3-yl)-2-azaspiro[3.4]octane or (S)-6-(4-(5-fluoro-2-((tetrahydro-2H-pyran-4-yl)oxy)phenyl)piperidin-1-yl)-2-(5-fluoropyridin-3-yl)-2-azaspiro[3.4]octane] | 31 | 14.4 | 0 | > 25 | 0 | > 25
2 | Fc1ccc(C2CCOCC2)c(C2CCN([C@@H]3CCC4(C3)CN(c3cncnc3)C4)CC2)c1 (single isomer, unassigned) [Example 10D, (R)-6-(4-(5-fluoro-2-(tetrahydro-2H-pyran-4-yl)phenyl)piperidin-1-yl)-2-(pyrimidin-5-yl)-2-azaspiro[3.4]octane or (S)-6-(4-(5-fluoro-2-(tetrahydro-2H-pyran-4-yl)phenyl)piperidin-1-yl)-2-(pyrimidin-5-yl)-2-azaspiro[3.4]octane] | 11 | 0.506 | 0 | > 25 | 0 | > 25
3 | Fc1ccc(OC2CC3(COC3)C2)c(C2CCN([C@@H]3CCC4(C3)CN(c3cncnc3)C4)CC2)c1 (single isomer, unassigned) [Example 10E, (R)-6-(4-(2-((2-oxaspiro[3.3]heptan-6-yl)oxy)-5-fluorophenyl)piperidin-1-yl)-2-(pyrimidin-5-yl)-2-azaspiro[3.4]octane or (S)-6-(4-(2-((2-oxaspiro[3.3]heptan-6-yl)oxy)-5-fluorophenyl)piperidin-1-yl)-2-(pyrimidin-5-yl)-2-azaspiro[3.4]octane] | 11 | 3.99 | 0 | > 25 | 0 | > 25
4 | Fc1ccc(OC2CCOCC2)c(C2CCN([C@@H]3CCC4(C3)CN(c3cncnc3)C4)CC2)c1 (single isomer, unassigned) [Example 10G, (R)-6-(4-(5-fluoro-2-((tetrahydro-2H-pyran-4-yl)oxy)phenyl)piperidin-1-yl)-2-(pyrimidin-5-yl)-2-azaspiro[3.4]octane or (S)-6-(4-(5-fluoro-2-((tetrahydro-2H-pyran-4-yl)oxy)phenyl)piperidin-1-yl)-2-(pyrimidin-5-yl)-2-azaspiro[3.4]octane] | 0 | – | 0 | > 25 | 0 | > 25
5 | Fc1ccc(OC2CCOCC2)c(C2CCN([C@@H]3CCC4(C3)CN(c3cncnc3)C4)CC2)c1 (single isomer, unassigned) [Example 10H, (R)-6-(4-(5-fluoro-2-((tetrahydro-2H-pyran-4-yl)oxy)phenyl)piperidin-1-yl)-2-(pyrimidin-5-yl)-2-azaspiro[3.4]octane or (S)-6-(4-(5-fluoro-2-((tetrahydro-2H-pyran-4-yl)oxy)phenyl)piperidin-1-yl)-2-(pyrimidin-5-yl)-2-azaspiro[3.4]octane] | 0 | – | 0 | > 25 | 0 | > 25
6 | FC(F)(F)Oc1ccccc1C1CCN([C@@H]2CCC3(C2)CN(c2ncco2)C3)CC1 (single isomer, unassigned) [Example 10K, (R)-2-(6-(4-(2-(trifluoromethoxy)phenyl)piperidin-1-yl)-2-azaspiro[3.4]octan-2-yl)oxazole or (S)-2-(6-(4-(2-(trifluoromethoxy)phenyl)piperidin-1-yl)-2-azaspiro[3.4]octan-2-yl)oxazole] | 0 | – | 0 | > 25 | 0 | > 25
7 | FC(F)(F)Oc1ccccc1C1CCN([C@@H]2CCC3(C2)CN(c2ncco2)C3)CC1 (single isomer, unassigned) [Example 10L, (R)-2-(6-(4-(2-(trifluoromethoxy)phenyl)piperidin-1-yl)-2-azaspiro[3.4]octan-2-yl)oxazole or (S)-2-(6-(4-(2-(trifluoromethoxy)phenyl)piperidin-1-yl)-2-azaspiro[3.4]octan-2-yl)oxazole] | 44 | 13.2 | 2 | 12.4 | 2 | > 25
8 | FC(F)(F)Oc1ccccc1C1CCN([C@@H]2CCC3(C2)CN(c2nncs2)C3)CC1 (single isomer, unassigned) [Example 10M, (R)-2-(6-(4-(2-(trifluoromethoxy)phenyl)piperidin-1-yl)-2-azaspiro[3.4]octan-2-yl)-1,3,4-thiadiazole or (S)-2-(6-(4-(2-(trifluoromethoxy)phenyl)piperidin-1-yl)-2-azaspiro[3.4]octan-2-yl)-1,3,4-thiadiazole] | 0 | > 25 | 0 | > 25 | 0 | > 25

Now from value to molecule:

Row | M2 FDSS PA [1] [%] | EC50 [1] [µM] | M3 FDSS PA [2] [%] | EC50 [2] [µM] | M5 FDSS PA [3] [%] | EC50 [3] [µM] | SMILES
9 | 30 | 0.035 | 0 | > 25 | 0 | > 25 | Fc1ccc(C2CCOCC2)c(C2CCN([C@@H]3CCC4(C3)CN(c3cncnc3)C4)CC2)c1 (single isomer, unassigned) [Example 10C, (R)-6-(4-(5-fluoro-2-(tetrahydro-2H-pyran-4-yl)phenyl)piperidin-1-yl)-2-(pyrimidin-5-yl)-2-azaspiro[3.4]octane or (S)-6-(4-(5-fluoro-2-(tetrahydro-2H-pyran-4-yl)phenyl)piperidin-1-yl)-2-(pyrimidin-5-yl)-2-azaspiro[3.4]octane]
10 | 0 | – | 0 | > 25 | 0 | > 25 | Fc1ccc(OC2CC3(COC3)C2)c(C2CCN([C@@H]3CCC4(C3)CN(c3cncnc3)C4)CC2)c1 (single isomer, unassigned) [Example 10F, (R)-6-(4-(2-((2-oxaspiro[3.3]heptan-6-yl)oxy)-5-fluorophenyl)piperidin-1-yl)-2-(pyrimidin-5-yl)-2-azaspiro[3.4]octane or (S)-6-(4-(2-((2-oxaspiro[3.3]heptan-6-yl)oxy)-5-fluorophenyl)piperidin-1-yl)-2-(pyrimidin-5-yl)-2-azaspiro[3.4]octane]
11 | 0 | – | 0 | > 25 | 0 | > 25 | COc1ccccc1C1CCN([C@H]2CCC3(C2)CN(c2ncco2)C3)CC1 (single isomer, unassigned) [Example 10I, S)-2-(6-(4-(2-methoxyphenyl)piperidin-1-yl)-2-azaspiro[3.4]octan-2-yl)oxazole or (R)-2-(6-(4-(2-methoxyphenyl)piperidin-1-yl)-2-azaspiro[3.4]octan-2-yl)oxazole]
12 | 42 | – | 0 | > 25 | 0 | 14.1 | COc1ccccc1C1CCN([C@H]2CCC3(C2)CN(c2ncco2)C3)CC1 (single isomer, unassigned) [Example 10J, (S)-2-(6-(4-(2-methoxyphenyl)piperidin-1-yl)-2-azaspiro[3.4]octan-2-yl)oxazole or (R)-2-(6-(4-(2-methoxyphenyl)piperidin-1-yl)-2-azaspiro[3.4]octan-2-yl)oxazole]
